Assays:
[1] = tested on: Blood monocytes from ApoE-/- mice (CD11b+); experiment: Transwell migration assay, blood monocytes; type: cell-based; details: 10 ng/ml in lower chamber, 2 hours, vs buffer alone
Method: (§1) Monocyte cell migration was quantified in 24-well transwell inserts with polycarbonate filters (8-μm pore size) (Corning Costar). THP-1 monocytes (0.5×10^4 in 100 μl of RPMI 1640 medium) or murine blood cells from ApoE^-/- mice (25 μl in 75 μl of RPMI 1640 medium) were added to the upper chamber of the insert. The lower chamber contained 600 μl of RPMI 1640 with or without 10ng/ml tcOPN or OPN protein. The plates were incubated at 37° C. in 5% CO2 during 2 hours and migrated cells in the lower chamber were counted using flow cytometry. Blood monocytes were characterized with the monocyte FACS panel described above. In blocking experiment, tcOPN protein were pre-incubated with plasma (dilution 1:100) pooled from PADRE ctrl mice or tcOPN-PADRE mice over night at 4° C. prior to the migration experiment.

[2] = tested on: human monocyte THP-1 cells; experiment: Transwell migration assay, THP-1; type: cell-based; details: 10 ng/ml in lower chamber, 2 hours, vs buffer alone or full-length OPN
Method: as §1

[3] = tested on: ApoE-/- mice; experiment: Atherosclerotic plaque area: en face descending aorta, aortic arch, subvalvular lesions; type: in vivo; details: additional early study, short peptide, HFD 8 weeks
Text: Female C57BL/6 Apoe^-/- mice (Jaxmice, USA) were immunized with tcOPN-PADRE or equal amounts of PADRE peptide using Alum (Pierce) as adjuvant, followed by two booster injections after two and five weeks (FIG. 1B). During the advanced study all mice received a final booster one weak prior to termination in order to analyze the effect on immune cells (FIG. 1B). Mice were fed a high-fat diet (HFD), 21% cocoa fat, 0.15% cholesterol, starting one week after the last booster injection. For early assessment of atherosclerosis mice were kept on HFD during 8 weeks before sacrifice. Mice that were allowed to develop a more advanced stage of atherosclerosis were kept on HFD during 15 weeks (FIG. 1B). For early atherosclerosis assessment two different lengths of immunized tcOPN-PADRE peptides (SEQ ID Nos: 6 and 7) were evaluated, while for advanced atherosclerosis assessment mice were immunized with shorter tcOPN-PADRE (SEQ ID No: 6) which was based on a tcOPN of 11 amino acids (SEQ ID NO: 4). Tissue was preserved as described previously. […] Cytokine levels for IL-1β, IL-2, IL-4, IL-5, IL-6, IL-10, IL-13, IL-17, IL-12(p70), IFNγ, TNFα and MCP-1 were analyzed in plasma using Bioplex multiplex technology (Bio-Rad) according to manufacturer's protocol. Plasma levels for OPN and tcOPN were analyzed by ELISA according to manufacturer's protocol (IBL International). […]

[4] = tested on: tcOPN-PADRE peptide, PADRE peptide, tcOPN protein or OPN protein; experiment: Antibody ELISA on plasma of immunized mice; type: in vivo; details: plasma of immunized ApoE-/- mice
Method: tcOPN-PADRE peptide, PADRE peptide, tcOPN protein or OPN protein was used for coating (20 μg/mL of each in PBS) microtiter plates (Nunc MaxiSorp, Nunc) over night at 4° C. Coated plates were washed with PBS with 0.05% Tween-20 and thereafter blocked with SuperBlock in Tris-buffered saline (TBS, Pierce) during 30 minutes at room temperature (RT) followed by an incubation of mouse plasma diluted 1:100 or 1:1000 in PBS-0.05% Tween-20 for 2 hours at RT. After rinsing, bound antibodies were detected using biotinylated goat anti-mouse IgGla or IgG2 antibodies (Jackson ImmunoResearch) that were incubated for 2 hours at RT. After washing, alkaline phosphatase-conjugated streptavidin (Sigma) was added and color reaction was developed using phosphatase substrate kit (Pierce). The absorbance (405 nm) was measured after 1 hour of incubation at room temperature. Mean values were calculated after subtraction of background absorbance.

[5] = tested on: ApoE-/- mice; experiment: Plasma cytokine levels (Bioplex multiplex) in immunized ApoE-/- mice on HFD; type: in vivo; details: mean ± SD
Text: Female C57BL/6 Apoe^-/- mice (Jaxmice, USA) were immunized with tcOPN-PADRE or equal amounts of PADRE peptide using Alum (Pierce) as adjuvant, followed by two booster injections after two and five weeks (FIG. 1B). During the advanced study all mice received a final booster one weak prior to termination in order to analyze the effect on immune cells (FIG. 1B). Mice were fed a high-fat diet (HFD), 21% cocoa fat, 0.15% cholesterol, starting one week after the last booster injection. For early assessment of atherosclerosis mice were kept on HFD during 8 weeks before sacrifice. Mice that were allowed to develop a more advanced stage of atherosclerosis were kept on HFD during 15 weeks (FIG. 1B). For early atherosclerosis assessment two different lengths of immunized tcOPN-PADRE peptides (SEQ ID Nos: 6 and 7) were evaluated, while for advanced atherosclerosis assessment mice were immunized with shorter tcOPN-PADRE (SEQ ID No: 6) which was based on a tcOPN of 11 amino acids (SEQ ID NO: 4). Tissue was preserved as described previously. All animal experiments were approved by the Animal Care and Use Committee. Cytokine levels for IL-1β, IL-2, IL-4, IL-5, IL-6, IL-10, IL-13, IL-17, IL-12(p70), IFNγ, TNFα and MCP-1 were analyzed in plasma using Bioplex multiplex technology (Bio-Rad) according to manufacturer's protocol. Plasma levels for OPN and tcOPN were analyzed by ELISA according to manufacturer's protocol (IBL International). Plasma cholesterol was quantified colorimetrically using Infinity Cholesterol (ThermoTrace).

In the case of “tcOPN: recombinant OPN cleaved with thrombin, C-terminal fragment removed (SLAYGLR)”, the “Monocyte migration towards the protein” value [1] is reported as “increased migration” and the “Monocyte migration towards the protein” value [2] is reported as “increased migration”.

In the case of “AKFVAAWTLKAAAGRGDSLAYGLR (PADRE-tcOPN short) [short tcOPN-PADRE peptide]”, the “Plaque area in the aortic arch, en face preparations” value [3] is reported as “smaller plaque area” and the Subvalvular plaque area [3] is reported as “recapitulated the difference”.

AKFVAAWTLKAAA (PADRE) was tested, and the “Antibodies (IgG) against the tcOPN-PADRE peptide” value [4] was “did not develop antibodies”, the “Antibodies recognizing PADRE peptide” value [4] was “low levels” and the “Plasma IFNγ” value ([5]; 8 week HFD) was 312 ± 225 pg/mL. The “Plasma IL-2” value ([5]; 8 week HFD) was 45 ± 15 pg/mL, the “Plasma IL-5” value ([5]; 8 week HFD) was 111 ± 56 pg/mL and the “Plasma IL-6” value ([5]; 8 week HFD) was 33 ± 35 pg/mL. The “Plasma IL-10” value ([5]; 8 week HFD) was 77 ± 32 pg/mL, the “Plasma IL-13” value ([5]; 8 week HFD) was 234 ± 129 pg/mL and the “Plasma IL-17” value ([5]; 8 week HFD) was 162 ± 62 pg/mL. For the same substance, the “Plasma TNFα” value ([5]; 8 week HFD) was 26 ± 0 pg/mL, the “Plasma MCP-1” value ([5]; 8 week HFD, * significant difference PADRE vs tcOPN-PADRE) was 835 ± 187 pg/mL and the “Plasma IFNγ” value ([5]; 15 week HFD) was 48 ± 24 pg/mL. For the same substance, the “Plasma IL-2” value ([5]; 15 week HFD) was 43 ± 21 pg/mL, the “Plasma IL-4” value ([5]; 15 week HFD) was 21 ± 7 pg/mL and the “Plasma IL-5” value ([5]; 15 week HFD) was 110 ± 32 pg/mL. For the same substance, the “Plasma IL-6” value ([5]; 15 week HFD) was 28 ± 11 pg/mL, the “Plasma IL-10” value ([5]; 15 week HFD) was 172 ± 64 pg/mL and the “Plasma IL-13” value ([5]; 15 week HFD) was 1153 ± 439 pg/mL. For the same substance, the “Plasma IL-17” value ([5]; 15 week HFD) was 148 ± 27 pg/mL, the “Plasma MCP-1” value ([5]; 15 week HFD) was 703 ± 386 pg/mL and the “Plasma TNFα” value ([5]; 15 week HFD) was 712 ± 249 pg/mL.

Reference: patent publication US20180289780A1, “OSTEOPONTIN AND THROMBIN-CLEAVED FRAGMENT THEREOF AND THEIR USE IN ATHEROSCLEROSIS PREVENTION, INFLAMMATION REDUCTION AND IMPROVING PLAQUE STABILITY” (CardioVax, LLC, priority 2017, published 2018)
